Assay results taken from ChEMBL document CHEMBL4373746, “Structural attributes influencing unbound tissue distribution” (Eur J Med Chem, 2020).

Experiments:
[1] = Fraction unbound in Wistar Han rat plasma at 2 uM incubated for 6 hrs by equilibrium dialysis method
[2] = Fraction unbound in Wistar Han rat white adipose tissue at 2 uM incubated for 6 hrs by equilibrium dialysis method
[3] = Fraction unbound in Wistar Han rat brain at 2 uM incubated for 6 hrs by equilibrium dialysis method
[4] = Fraction unbound in Wistar Han rat heart at 2 uM incubated for 6 hrs by equilibrium dialysis method
[5] = Fraction unbound in Wistar Han rat liver at 2 uM incubated for 6 hrs by equilibrium dialysis method
[6] = Fraction unbound in Wistar Han rat skeletal muscle at 2 uM incubated for 6 hrs by equilibrium dialysis method
[7] = Total plasma concentration in Wistar Han rat at 1 to 2 mg/kg, iv infused for 10 to 20 hrs by LC-MS/MS analysis; details: in vivo
[8] = Drug concentration in total white adipose tissue in Wistar Han rat at 1 to 2 mg/kg, iv infused for 10 to 20 hrs by LC-MS/MS analysis; details: in vivo
[9] = Drug concentration in total brain in Wistar Han rat at 1 to 2 mg/kg, iv infused for 10 to 20 hrs by LC-MS/MS analysis; details: in vivo
[10] = Drug concentration in total heart in Wistar Han rat at 1 to 2 mg/kg, iv infused for 10 to 20 hrs by LC-MS/MS analysis; details: in vivo
[11] = Drug concentration in total liver in Wistar Han rat at 1 to 2 mg/kg, iv infused for 10 to 20 hrs by LC-MS/MS analysis; details: in vivo
[12] = Drug concentration in total skeletal muscle in Wistar Han rat at 1 to 2 mg/kg, iv infused for 10 to 20 hrs by LC-MS/MS analysis; details: in vivo
[13] = Unbound tissue partition coefficient, ratio of drug level in heart to plasma in Wistar Han rat at 1 to 2 mg/kg, iv infused for 10 to 20 hrs by LC-MS/MS analysis; details: heart/plasma
[14] = Unbound tissue partition coefficient, ratio of drug level in brain to plasma in Wistar Han rat at 1 to 2 mg/kg, iv infused for 10 to 20 hrs by LC-MS/MS analysis; details: brain/plasma
[15] = Unbound tissue partition coefficient, ratio of drug level in adipose to plasma in Wistar Han rat at 1 to 2 mg/kg, iv infused for 10 to 20 hrs by LC-MS/MS analysis; details: adipose/plasma
[16] = Unbound tissue partition coefficient, ratio of drug level in liver to plasma in Wistar Han rat at 1 to 2 mg/kg, iv infused for 10 to 20 hrs by LC-MS/MS analysis; details: liver/plasma
[17] = Unbound tissue partition coefficient, ratio of drug level in skeletal muscle to plasma in Wistar Han rat at 1 to 2 mg/kg, iv infused for 10 to 20 hrs by LC-MS/MS analysis; details: skeletal muscle/plasma
[18] = Apparent permeability of the compound across dog RRCK cells by MDCK-LE assay

SMILES | fraction unbound at 6 h, 2 µM [1] | fraction unbound at 6 h, 2 µM [2] | fraction unbound at 6 h, 2 µM [3] | fraction unbound at 6 h, 2 µM [4] | fraction unbound at 6 h, 2 µM [5] | fraction unbound at 6 h, 2 µM [6] | Cp [7] [ng/mL] | Ct [8] [ng/mL] | Ct [9] [ng/mL] | Ct [10] [ng/mL] | Ct [11] [ng/mL] | Ct [12] [ng/mL] | Kp uu [13] | Kp uu [14] | Kp uu [15] | Kp uu [16] | Kp uu [17] | Papp [18] [×10⁻⁶ cm/s]
CCCC(Oc1ccc(-n2cc3ccccc3n2)cc1)c1ccc(C(=O)NCCC(=O)O)cc1 (configuration not stated) | 0.0034 | 0.105 | 0.00341 | 0.00543 | 0.00607 | 0.00584 | 68 | 0.77 | 1.9 | 80 | 420 | 12 | 1.8 | 0.018 | 0.024 | 14 | 0.38 | 9.9
CN(C)C[C@@H](OC(=O)N1Cc2c(NC(=O)C3(C(F)(F)F)CC3)n[nH]c2C1(C)C)c1ccccc1 | 0.362 | 0.205 | 0.0543 | 0.0941 | 0.0749 | 0.138 | 28 | 79 | 2.3 | 190 | 420 | 97 | 1.8 | 0.013 | 1.6 | 3.3 | 1.4 | 15
COc1ccc(-c2cc3c(C(=O)O)n[nH]c3cc2Cl)cc1 | 0.00439 | 0.334 | 0.0135 | 0.0256 | 0.0193 | 0.0398 | 96 | 1 | 0.6 | 29 | 140 | 1.9 | 1.8 | 0.017 | 1.2 | 6.5 | 0.15 | 8.8
CCCn1cnc(C[C@H](CCCN)C(=O)O)c1 [UK-396,082] | 0.686 | 0.541 | 0.239 | 0.237 | 0.237 | 0.676 | 160 | 30 | 87 | 190 | 290 | 160 | 0.39 | 0.19 | 0.14 | 0.63 | 0.99 | 0.27
CC(=O)NS(=O)(=O)c1ccc(Oc2ccc(F)c(Cl)c2)c(C(F)(F)F)c1 | 0.00426 | 0.229 | 0.0319 | 0.0329 | 0.0598 | 0.0581 | 450 | 14 | 4.4 | 103 | 1.4 | 24 | 1.8 | 0.074 | 1.6 | 0.033 | 0.72 | 35
Oc1noc2cc(Cl)c(Cl)cc12 | 0.00445 | 0.714 | 0.103 | 0.13 | 0.105 | 0.153 | 500 | 29 | 24 | 180 | 4.7 | 17 | 10 | 1.1 | 9.7 | 0.22 | 1.2 | 29
CC(C)n1ncc2c1C(=O)CC1(CCN(C(=O)c3ccc4[nH]nc(C(N)=O)c4c3)CC1)C2 | 0.119 | 0.398 | 0.0763 | 0.121 | 0.108 | 0.172 | 65 | 17 | 0.38 | 62 | 500 | 30 | 1.1 | 0.0018 | 0.98 | 7.9 | 0.76 | 3.6
C[C@H]1C[C@H]2CSC(N)=N[C@@]2(c2cc(C#N)ccc2F)CO1 | 0.796 | 1 | 0.573 | 0.668 | 0.548 | 0.344 | 84 | 86 | 230 | 380 | 990 | 240 | 3.9 | 2.1 | 1.4 | 8.5 | 1.3 | 29
C[C@H](c1nc2cnc(N3CCC[C@@H](C(=O)N4CCCC4)C3)nc2[nH]1)n1cc(Cl)cn1 | 0.186 | 0.256 | 0.155 | 0.121 | 0.111 | 0.0901 | 50 | 39 | 1.8 | 120 | 240 | 56 | 1.5 | 0.013 | 1.1 | 2.8 | 0.54 | 24
Cn1nc(C(=O)NCCN2CCOCC2)cc1-c1cc2ccccc2[nH]1 | 0.176 | 0.189 | 0.0291 | 0.0422 | 0.0714 | 0.0664 | 29 | 29 | 19 | 150 | 300 | 42 | 1.3 | 0.12 | 1.1 | 4.4 | 0.57 | 33

Further lines, results first:

fraction unbound at 6 h, 2 µM [1] | fraction unbound at 6 h, 2 µM [2] | fraction unbound at 6 h, 2 µM [3] | fraction unbound at 6 h, 2 µM [4] | fraction unbound at 6 h, 2 µM [5] | fraction unbound at 6 h, 2 µM [6] | Cp [7] [ng/mL] | Ct [8] [ng/mL] | Ct [9] [ng/mL] | Ct [10] [ng/mL] | Ct [11] [ng/mL] | Ct [12] [ng/mL] | Kp uu [13] | Kp uu [14] | Kp uu [15] | Kp uu [16] | Kp uu [17] | Papp [18] [×10⁻⁶ cm/s] | SMILES
0.00655 | 0.000864 | 0.00394 | 0.0101 | 0.00815 | 0.0047 | 31 | 570 | 73 | 66 | 480 | 25 | 3.3 | 1.5 | 2.6 | 20 | 0.6 | 34 | Cc1nc2cc(-c3cc(F)cc(C#N)c3)ccc2s1
0.817 | 1 | 0.347 | 0.667 | 0.696 | 0.276 | 32 | 0.86 | 3.7 | 45 | 70 | 38 | 1.1 | 0.048 | 0.027 | 1.9 | 0.41 | 1.7 | O=c1[nH]c(=S)n(CCO)c2cc[nH]c12
0.0667 | 0.0208 | 0.079 | 0.1 | 0.12 | 0.0833 | 79 | 880 | 200 | 230 | 230 | 40 | 4.7 | 3.2 | 3.9 | 5.4 | 0.68 | 35 | O=C(NC(c1ccccc1)c1ccccc1)C1CC1
0.00392 | 0.0593 | 0.00714 | 0.00722 | 0.00845 | 0.00926 | 410 | 18 | 5.8 | 200 | 2400 | 58 | 0.91 | 0.026 | 0.69 | 13 | 0.33 | 8.5 | CCC[C@H](Oc1cc(C)c(-n2cc(C(F)(F)F)cn2)c(C)c1)c1ccc(C(=O)NCCC(=O)O)cc1 [PF-06291874]
